Experimental findings from US11490622B2, “Substituted heterocycles as harmful arthropod controlling agents” (SUMITOMO CHEMICAL COMPANY, LIMITED, priority 2017, dated 2022) are described below.

For experiment [1], the system named is tobacco cutworms (Spodoptera litura). Kind of experiment: Test method 3: sprayed cabbage seedling, tobacco cutworm larvae. Particulars: 120 h, sprayed 20 mL/seedling on cabbage, second instar larvae, after 5 days, 25° C., read-out: mortality of insects. Type of experiment: in vivo. As for the experimental part:
Test compounds are made to a formulation according to a similar method to that described in the Formulation example 5, and thereto is added water containing 0.03 v/v % of Shindain (registered trademark) to prepare a diluted solution containing a prescribed concentration of the test compound.
Cabbage (Brassicae oleracea) seedling (on the developmental stage of the second to third true leaf) is planted in a cup, and the diluted solutions are sprayed into the seedling at a ratio of 20 mL/seedling. Thereafter, the stem and leaf thereof is cut out and then is installed into a cup that is covered with filter paper on the bed of the cup. Five (5) tobacco cutworms (Spodoptera litura) at the second instar larval stage are released into the cup. After 5 days, the number of the surviving insects is counted, and the mortality of insects is calculated by the following equation. Mortality (%)=(1−Number of surviving insects/5)×100
Present compound Nos: 1, 3, 4, 6 to 12, 23, 25 to 30, 32, 35 to 43, 47 to 49, 92, 93, 97, and 107

The subject of experiment [2] is Western corn rootworms (Diabrotica virgifera virgifera). Kind of experiment: Test method 5: corn seedling immersed in diluted solution, Western corn rootworm larvae. Particulars: 120 h, corn seedling immersed 30 seconds, second instar larvae, after 5 days, 25° C., read-out: mortality of insects. Type of experiment: in vivo. As for the experimental part:
Each 1 mg of the test compounds is dissolved into 50 μL of a mixed solution of polyoxyethylene sorbitan mono-cocoate and acetone (polyoxyethylene sorbitan mono-cocoate:acetone=5:95 (v/v ratio)). Thereto is added water containing 0.03% by volume of Shindain (registered trademark) to prepare a diluted solution containing a prescribed concentration of the test compound.
A young entire seedling of Corns (Zea mays) is immersed into the diluted solution for 30 seconds. Thereafter, each two grains of the seedlings are installed in a plastic petri dish ([…]), and 10 Western corn rootworms (Diabrotica virgifera virgifera) at the second instar larval stage are released into the dish. After 5 days, the number of the dead insects is counted, and the mortality of insects is calculated by the following equation. Mortality (%)={Number of dead insects/10}×100
Present compound Nos: 1, 4, 7, 9 to 13, 23, 24, 26 to 29, 32, 33, 35, 38, 39, 41, 43, 44, 47, 48, 59, 60, 62, 63, 67 to 70, 73 to 83, and 96

Structures are written as SMILES. A value given as a limit tells only on which side of the number the result lay.

For the molecule `CCSc1c(-c2ccc(OCC(F)(F)C(F)(F)F)n(C)c2=O)nc2ccc(C(F)(F)F)cn12` [compound 1], the mortality at 500 ppm in experiment [1] and in experiment [2] was no less than 80% in each case.
